Target: T1, PD-1/PD-L1 (Homo sapiens, UniProt Q9NZQ7)
T1 construct: 60535 (PD-1/NFAT-Reporter-Jurkat); host or cells: CHO cells expressing PD-L1; Jurkat cells expressing PD-1
Experiment: Detection of biological activity of PD-1/PD-L1 signaling inhibition at the cellular level (NFAT luciferase reporter, PD-1/NFAT-Reporter-Jurkat cells co-cultured with TCR activator/PD-L1-CHO cells)
Format: cell-based
Conditions: PD-1/NFAT-Reporter-Jurkat + TCR activator/PD-L1-CHO co-culture, 6 hours; Atezolizumab as positive control
Description: Detection of Biological Activity of PD-1/PD-L1 Signaling Inhibition at the Cellular Level
This detection method is used for evaluating the biological activity of the compounds described in the present invention at the cellular level.
This detection method uses the luciferase reporter gene method to detect the biological activity of the compound on the inhibition of PD-1/PD-L1 signal at the cellular level. PD-1/NFAT—Reporter—Jurkat cells stably express human PD-1 and express the luciferase reporter gene regulated by NFAT elements; TCR activator/PD-L1-CHO cells stably express human PD-L1 and TCR activator elements. When the two cell lines were co-cultured, the binding of PD-1/PD-L1 inhibited the TCR signaling pathway, thereby inhibiting the expression of the downstream NFAT-controlled luciferase reporter gene. When PD-1/PD-L1 antibody or inhibitor is added, this inhibitory effect is reversed and luciferase is expressed, so that the effect of PD-1/PD-L1 inhibitor on luciferase activity can be detected.
PD-1/NFAT—Reporter—Jurkat cell (Cat: 60535) and TCR activator/PD-L1-CHO cell (Cat: 60536) were purchased from BPS Bioscience. Anti-human PD-L1 antibody (Atezolizumab, Cat: A2004) was purchased from Selleck; luciferase reporter gene expression detection kit (ONE-Glo™ Luciferase Assay System, Cat: E6120) was purchased from Promega; multifunction plate reader (SpectraMax i3x) was purchased from Molecular Devices.
The PD-1/NFAT—Reporter—Jurkat cells and TCR activator/PD-L1-CHO cells were cultured according to the routine cell culture protocol.
TCR activator/PD-L1-CHO cells were harvested and seeded into a 96-well culture plate at 35,000 cells/well in a medium volume of 100 μl and incubated overnight at 37° C. The next day, the medium was discarded, compound was added and incubated for 30 minutes, while a solvent control (dimethyl sulfoxide, DMSO, final concentration of 0.1%) and PD-L1 antibody (Atezolizumab, final concentration of about 10 nM) as positive controls were set. PD-1/NFAT-reporter-Jurkat cells were then added. After culturing for 6 hours, the luciferase activity was detected according to the instructions of the luciferase detection reagent.
Using PD-L1 antibody as a positive control, calculate the inhibition rate of PD-1/PD-L1 binding of the test compound (%)=(chemiluminescence value of compound treated wells/average value of chemiluminescence value of solvent control wells−1)/(average value of chemiluminescence value of PD-L1 antibody well/average value of chemiluminescence value of solvent control well−1)×100%.
According to the above detection method, the compounds of the present invention were evaluated for their biological activity at the cellular level, and the activity results are shown in the following table.

T1 sequence (Q9NZQ7 19-290): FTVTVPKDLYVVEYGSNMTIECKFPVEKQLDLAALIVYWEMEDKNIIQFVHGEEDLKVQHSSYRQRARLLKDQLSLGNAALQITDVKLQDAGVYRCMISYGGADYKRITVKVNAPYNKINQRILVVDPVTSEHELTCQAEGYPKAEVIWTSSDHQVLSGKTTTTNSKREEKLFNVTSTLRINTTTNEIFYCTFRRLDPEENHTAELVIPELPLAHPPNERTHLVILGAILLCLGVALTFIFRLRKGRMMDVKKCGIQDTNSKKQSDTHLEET

First: COc1cc(Cn2ncc3c(-c4cccc(-c5ccc(CNC[C@@H]6CCC(=O)N6)cc5)c4Cl)cccc32)c(Cl)cc1CN(C)CC1CCC(C(=O)O)CC1 (some centres unmarked) [Compound 47]
Second: CCOc1cc(-c2cccc(-c3cccc4c3cnn4Cc3cc(OC)c(CN(C)CC4CCC(C(=O)O)CC4)cc3Cl)c2Cl)ccc1CNC[C@@H]1CCC(=O)N1 (some centres unmarked) [Compound 97]
The EC50 of the first is 1.8-fold higher: 0.499 µM for the first, 0.273 µM for the second.

`N#Cc1cncc(COc2cc(Cn3ncc4c(-c5cccc(-c6ccc(CNC[C@@H]7CCC(=O)N7)cc6)c5)cccc43)c(Cl)cc2CN[C@@H](CO)C(=O)O)c1` [Compound 14] and `N#Cc1cncc(COc2cc(Cn3ncc4c(-c5cccc(-c6ccc(CNC[C@@H]7CCC(=O)N7)cc6)c5F)cccc43)c(Cl)cc2CN[C@@H](CO)C(=O)O)c1` [Compound 12] are within 1.5-fold of each other in EC50: 0.339 µM for the first, 0.255 µM for the second.

First: COc1cc(Cn2ncc3c(-c4cccc(-c5ccc(CNC[C@@H]6CCC(=O)N6)cc5)c4Cl)cc(Cl)cc32)c(Cl)cc1CN[C@@H](CO)C(=O)O [Compound 117]
Second: COc1cc(Cn2ncc3c(-c4cccc(-c5ccc(CNC[C@@H]6CCC(=O)N6)cc5)c4Cl)cccc32)c(C#N)cc1CN[C@@H](CO)C(=O)O [Compound 75]
The EC50 of the first is 3.8-fold higher: 0.537 µM for the first, 0.142 µM for the second.

Going from `COc1cc(Cn2ncc3c(-c4cccc(-c5cc(F)c(CNC[C@@H]6CCC(=O)N6)c(OC)c5)c4Cl)cccc32)c(Cl)cc1CN(CCO)[C@H]1CC[C@H](C(=O)O)CC1` [Compound 171] to `COc1cc(Cn2ncc3c(-c4cccc(-c5cc(F)c(CNC[C@@H]6CCC(=O)N6)c(OC)c5)c4Cl)cccc32)c(Cl)cc1CN(C)[C@H]1CC[C@H](C(=O)O)CC1` [Compound 114], the EC50 falls from 0.04 µM to 0.014 µM (2.9-fold). The second is the more potent here.

`N#Cc1cncc(COc2cc(Cn3ncc4c(-c5cccc(-c6ccc(CCCN7CC[C@@H](O)C7)cc6)c5Cl)cccc43)c(Cl)cc2CN[C@@H](CO)C(=O)O)c1` [Compound 19] and `N#Cc1cncc(COc2cc(Cn3ncc4c(-c5cccc(-c6ccc(CCN7CC[C@@H](O)C7)cc6)c5Cl)cccc43)c(Cl)cc2CN[C@@H](CO)C(=O)O)c1` [Compound 18] are within 1.5-fold of each other in EC50: 0.51 µM for the first, 0.562 µM for the second.

Going from `COc1cc(-c2cccc(-c3cccc4c3cnn4Cc3cc(OC[C@@H]4CCC(=O)N4)c(CN(C)C[C@H]4CC[C@H](C(=O)O)CC4)cc3Cl)c2Cl)ccc1CNC[C@@H]1CCC(=O)N1` [Compound 134] to `COc1cc(-c2cccc(-c3cccc4c3cnn4Cc3cc(OCC(N)=O)c(CN(C)C[C@H]4CC[C@H](C(=O)O)CC4)cc3Cl)c2Cl)ccc1CNC[C@@H]1CCC(=O)N1` [Compound 127], the EC50 rises from 0.068 µM to 0.16 µM (2.4-fold).

`COc1cc(Cn2ncc3c(-c4cccc(-c5ccc(CNC[C@@H]6CCC(=O)N6)cc5)c4Cl)cccc32)c(Cl)cc1CNCc1nnn[nH]1` [Compound 85] and `O=C(O)COc1cc(Cn2ncc3c(-c4cccc(-c5ccc(CNC[C@@H]6CCC(=O)N6)cc5)c4Cl)cccc32)c(Cl)cc1CNCCO` [Compound 86] are within 1.5-fold of each other in EC50: 0.469 µM for the first, 0.395 µM for the second.

First: N#Cc1cncc(COc2cc(Cn3ncc4c(-c5cccc(-c6ccc(CNC[C@@H]7CCC(=O)N7)cc6)c5Cl)cccc43)c(Cl)cc2CN2CC[C@@H](C(=O)O)C2)c1 [Compound 27]
Second: COc1cc(Cn2ncc3c(-c4cccc(-c5ccc(CNC[C@@H]6CCC(=O)N6)cc5)c4Cl)cccc32)c(Cl)cc1CN1CCC[C@H](C(=O)O)C1 [Compound 36]
The EC50 of the first is 3.5-fold lower: 0.133 µM for the first, 0.459 µM for the second. The first is the more potent here.

`COc1cc(Cn2ncc3c(-c4cccc(-c5cc(F)c(CNC[C@@H]6CCC(=O)N6)c(OC)c5)c4Cl)cccc32)c([N+](=O)[O-])cc1CN(C)[C@H]1CC[C@H](C(=O)O)CC1` [Compound 142] and `COc1cc(Cn2ncc3c(-c4cccc(-c5cc(F)c(CNC[C@@H]6CCC(=O)N6)c(OC)c5)c4Cl)cccc32)c([N+](=O)[O-])cc1CN(C)[C@H]1C[C@H](C(=O)O)C1` [Compound 143] are within 1.5-fold of each other in EC50: 0.037 µM for the first, 0.031 µM for the second.

Compared with `COc1cc(Cn2ncc3c(-c4cccc(-c5ccc(CNC[C@@H]6CCC(=O)N6)c(OC)n5)c4Cl)cccc32)c(Cl)cc1CN(C)CC1CCC(C(=O)O)CC1` (some centres unmarked) [Compound 91], `COc1cc(Cn2ncc3c(-c4cccc(-c5ccc(CNC[C@@H]6CCC(=O)N6)c(OC(C)C)c5)c4Cl)cccc32)c(Cl)cc1CN(C)CC1CCC(C(=O)O)CC1` (some centres unmarked) [Compound 98] is 5.7-fold higher in EC50: 0.092 µM for the first, 0.52 µM for the second. The first is the more potent here.

Compared with `COc1cc(Cn2ncc3c(-c4cccc(-c5ccc(CN(C)C[C@@H]6CCC(=O)N6)c(OC)c5)c4Cl)cccc32)c(Cl)cc1CN(C)CC1CCC(C(=O)O)CC1` (some centres unmarked) [Compound 100], `COc1cc(-c2cccc(-c3cccc4c3cnn4Cc3cc(OC)c(CN(C)CC4CCC(C(=O)O)CC4)cc3C)c2Cl)ccc1CNC[C@@H]1CCC(=O)N1` (some centres unmarked) [Compound 112] is 4-fold lower in EC50: 0.745 µM for the first, 0.185 µM for the second. The second is the more potent here.

First: COc1cc(-c2cccc(-c3cccc4c3cnn4Cc3nc(OC)c(CN(C)C45CCC(C(=O)O)(CC4)CC5)cc3Cl)c2Cl)cc(F)c1CNC[C@@H]1CCC(=O)N1 [Compound 135]
Second: COc1cc(Cn2ncc3c(-c4cccc(-c5cc(F)c(CNC[C@H]6CCC(=O)N6)c(OC)c5)c4Cl)cccc32)c(Cl)cc1CN(C)C12CCC(C(=O)O)(CC1)CC2 [Compound 167]
The EC50 of the first is 2.1-fold lower: 0.025 µM for the first, 0.053 µM for the second. The first is the more potent here.

Going from `COc1cc(Cn2ncc3c(-c4cccc(-c5ccc(CNC[C@@H]6CCC(=O)N6)c(OC(F)(F)F)c5)c4Cl)cccc32)c(Cl)cc1CN1CC[C@@H](C(=O)O)C1` [Compound 51] to `COc1cc(-c2cccc(-c3cccc4c3cnn4Cc3cc(OC)c(CN4CC[C@@H](C(=O)O)C4)cc3Cl)c2Cl)ccc1CNC[C@@H]1CCC(=O)N1` [Compound 52], the EC50 falls from 0.692 µM to 0.092 µM (7.5-fold).

First: N#Cc1cncc(COc2cc(Cn3ncc4c(-c5cccc(-c6ccc(CN7CCOCC7)cc6)c5Cl)cccc43)c(Cl)cc2CN[C@@H](CO)C(=O)O)c1 [Compound 3]
Second: N#Cc1cncc(COc2cc(Cn3ncc4c(-c5cccc(-c6ccc(CNC[C@@H]7CCC(=O)N7)cc6)c5C#N)cccc43)c(Cl)cc2CN[C@@H](CO)C(=O)O)c1 [Compound 13]
The EC50 of the first is 3.4-fold higher: 0.395 µM for the first, 0.116 µM for the second. The second is the more potent here.

`COc1cc(-c2cccc(-c3cccc4c3cnn4Cc3cc(OC)c(CN(C)C4CC5(CC(C(=O)O)C5)C4)cc3Cl)c2Cl)ccc1CNC[C@@H]1CCC(=O)N1` (some centres unmarked) [Compound 106] and `COc1cc(-c2cccc(-c3cccc4c3cnn4Cc3cc(OC)c(CN(C)[C@H]4CC[C@@H](CC(=O)O)CC4)cc3Cl)c2Cl)ccc1CNC[C@@H]1CCC(=O)N1` [Compound 109] are within 1.5-fold of each other in EC50: 0.043 µM for the first, 0.044 µM for the second.

Compared with `COc1cc(-c2cccc(-c3cccc4c3cnn4Cc3cc(OC)c(CN4CCC(CC(=O)O)CC4)cc3Cl)c2Cl)ccc1CNC[C@@H]1CCC(=O)N1` [Compound 94], `COc1cc(-c2cccc(-c3cccc4c3cnn4Cc3cc(OC)c(CN(C)[C@H]4CC[C@H](CC(=O)O)CC4)cc3Cl)c2Cl)ccc1CNC[C@@H]1CCC(=O)N1` [Compound 95] is 9.5-fold lower in EC50: 0.142 µM for the first, 0.015 µM for the second.

Compared with `COc1cc(-c2cccc(-c3cccc4c3cnn4Cc3cc(OC)c(CN(C)CC4CCC(C(=O)O)CC4)cc3[N+](=O)[O-])c2Cl)ccc1CNC[C@@H]1CCC(=O)N1` (some centres unmarked) [Compound 96], `COc1cc(-c2cccc(-c3cccc4c3cnn4Cc3cc(OC)c(CN(C)C4CCC(C(=O)O)CC4)cc3[N+](=O)[O-])c2Cl)ccc1CNC[C@@H]1CCC(=O)N1` (some centres unmarked) [Compound 92] is 3-fold lower in EC50: 0.045 µM for the first, 0.015 µM for the second.

Compared with `COc1cc(Cn2ncc3c(-c4cccc(-c5cnc(CNC[C@@H]6CCC(=O)N6)c(OC)n5)c4C)cccc32)c(Cl)cc1CN(C)C12CCC(C(=O)O)(CC1)CC2` [Compound 170], `CCN(Cc1cc(Cl)c(Cn2ncc3c(-c4cccc(-c5cc(F)c(CNC[C@@H]6CCC(=O)N6)c(OC)c5)c4Cl)cccc32)cc1OC)C12CCC(C(=O)O)(CC1)CC2` [Compound 159] is 7.2-fold lower in EC50: 0.265 µM for the first, 0.037 µM for the second.

Compared with `COc1cc(Cn2ncc3c(-c4cccc(-c5ccc(CNC[C@@H]6CCC(=O)N6)c(C)c5)c4Cl)cccc32)c(Cl)cc1CN1CC[C@@H](C(=O)O)C1` [Compound 48], `COc1cc(-c2cccc(-c3cccc4c3cnn4Cc3cc(OC)c(CN(C)[C@H]4CC[C@H](C(=O)NS(C)(=O)=O)CC4)cc3Cl)c2Cl)ccc1CNC[C@@H]1CCC(=O)N1` [Compound 129] is 23-fold lower in EC50: 0.654 µM for the first, 0.029 µM for the second.

Going from `N#Cc1cncc(COc2cc(Cn3ncc4c(-c5cccc(-c6ccc(CNC[C@@H]7CCC(=O)N7)cn6)c5Cl)cccc43)c(Cl)cc2CN[C@@H](CO)C(=O)O)c1` [Compound 9] to `COc1cc(Cn2ncc3c(-c4cccc(-c5cc(F)c(CNC[C@@H]6CCC(=O)N6)c(OC)c5)c4Cl)cccc32)c(Cl)cc1CN(C)[C@H]1CC[C@H](CCC(=O)O)CC1` [Compound 131], the EC50 falls from 0.591 µM to 0.04 µM (15-fold).

In the case of `COc1cc(-c2cccc(-c3cccc4c3cnn4Cc3cc(OC)c(CN(C)C4CCC(C(=O)O)CC4)cc3S(C)(=O)=O)c2Cl)ccc1CNC[C@@H]1CCC(=O)N1` (some centres unmarked) [Compound 103], the EC50 is reported as 0.208 µM.

— US12583839B2, “PD-L1 antagonist compound” (ADLAI NORTYE BIOPHARMA CO., LTD., priority 2019, dated 2026)
